What was measured:
NCI-H441 = assay: cells; type: functional, cell-based; conditions: Homo sapiens;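 note: growth inhibition of NCI-H441 cells, read out with a cell viability assay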
Description: SANGER: Inhibition of human NCI-H441 cell growth in a cell viability assay.

SIMA = assay: cells; type: functional, cell-based, Homo sapiens; conditions: Homo sapiens, SIMA;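 note: growth inhibition of SIMA cells, measured with a cell viability readout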
Description: SANGER: Inhibition of human SIMA cell growth in a cell viability assay.

PANC-03-27 = assay: cells; type: functional, cell-based; conditions: Homo sapiens
Description: SANGER: Inhibition of human PANC-03-27 cell growth in a cell viability assay.

CAL-39 = assay: cells; type: functional, cell-based; conditions: Homo sapiens;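 note: cell viability assay measuring growth inhibition of CAL-39 cells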
Description: SANGER: Inhibition of human CAL-39 cell growth in a cell viability assay.

D-542MG = assay: cells; type: functional, cell-based; conditions: Homo sapiens
Description: SANGER: Inhibition of human D-542MG cell growth in a cell viability assay.

IGR-1 = assay: cells; type: functional, cell-based; conditions: Homo sapiens;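 note: growth inhibition of human IGR-1 cells, read out with a cell viability assay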
Description: SANGER: Inhibition of human IGR-1 cell growth in a cell viability assay.

COLO-741 = assay: cells; type: functional, cell-based; conditions: Homo sapiens
Description: SANGER: Inhibition of human COLO-741 cell growth in a cell viability assay.

A2058 = assay: cells; type: functional, cell-based; conditions: Homo sapiens;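 note: reduction of A2058 cell growth, read out with a viability assay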
Description: SANGER: Inhibition of human A2058 cell growth in a cell viability assay.

MHH-CALL-2 = assay: cells; type: functional, cell-based, Homo sapiens; conditions: Homo sapiens, MHH-CALL-2;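 note: growth inhibition of the cell line, read out in a cell viability assay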
Description: SANGER: Inhibition of human MHH-CALL-2 cell growth in a cell viability assay.

NB1 = assay: cells; type: functional, cell-based, Homo sapiens; conditions: Homo sapiens, NB1;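 note: reduction of NB1 cell proliferation, read out with a viability assay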
Description: SANGER: Inhibition of human NB1 cell growth in a cell viability assay.

RCM-1 = assay: cells; type: functional, cell-based; conditions: Homo sapiens;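 note: growth inhibition of the RCM-1 line, determined with a cell viability readout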
Description: SANGER: Inhibition of human RCM-1 cell growth in a cell viability assay.

MRK-nu-1 = assay: cells; type: functional, cell-based, Homo sapiens; conditions: Homo sapiens, MRK-nu-1;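 note: cell viability assay measuring growth suppression of human MRK-nu-1 cells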
Description: SANGER: Inhibition of human MRK-nu-1 cell growth in a cell viability assay.

NCI-H520 = assay: cells; type: functional, cell-based; conditions: Homo sapiens;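 note: growth inhibition of NCI-H520 cells, measured by a cell viability assay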
Description: SANGER: Inhibition of human NCI-H520 cell growth in a cell viability assay.

SK-OV-3 = assay: cells; type: functional, cell-based; conditions: Homo sapiens;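 note: growth inhibition of SK-OV-3 human cells, read out with a cell viability assay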
Description: SANGER: Inhibition of human SK-OV-3 cell growth in a cell viability assay.

EHEB = assay: cells; type: functional, cell-based; conditions: Homo sapiens;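 note: growth inhibition of human EHEB cells, read out with a cell viability assay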
Description: SANGER: Inhibition of human EHEB cell growth in a cell viability assay.

SW1710 = assay: cells; type: functional, cell-based; conditions: Homo sapiens;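 note: growth inhibition of SW1710 cells, determined with a cell viability assay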
Description: SANGER: Inhibition of human SW1710 cell growth in a cell viability assay.

YKG-1 = assay: cells; type: functional, cell-based; conditions: Homo sapiens;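 note: cell growth inhibition, read out with a viability assay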
Description: SANGER: Inhibition of human YKG-1 cell growth in a cell viability assay.

U-698-M = assay: cells; type: functional, cell-based, Homo sapiens; conditions: Homo sapiens, U-698-M
Description: SANGER: Inhibition of human U-698-M cell growth in a cell viability assay.

NCI-H2347 = assay: cells; type: functional, cell-based; conditions: Homo sapiens;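 note: growth inhibition of the cell line, read out with a cell viability assay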
Description: SANGER: Inhibition of human NCI-H2347 cell growth in a cell viability assay.

RT-112 = assay: cells; type: functional, cell-based; conditions: Homo sapiens
Description: SANGER: Inhibition of human RT-112 cell growth in a cell viability assay.

CP66-MEL = assay: cells; type: functional, cell-based; conditions: Homo sapiens;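 note: growth inhibition of CP66-MEL cells determined in a cell viability assay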
Description: SANGER: Inhibition of human CP66-MEL cell growth in a cell viability assay.

SCC-4 = assay: cells; type: functional, cell-based; conditions: Homo sapiens;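 note: growth inhibition of human SCC-4 cells, read out as cell viability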
Description: SANGER: Inhibition of human SCC-4 cell growth in a cell viability assay.

BHT-101 = assay: cells; type: functional, cell-based; conditions: Homo sapiens
Description: SANGER: Inhibition of human BHT-101 cell growth in a cell viability assay.

D-336MG = assay: cells; type: functional, cell-based, Homo sapiens; conditions: Homo sapiens, D-336MG
Description: SANGER: Inhibition of human D-336MG cell growth in a cell viability assay.

BEN = assay: cells; type: functional, cell-based; conditions: Homo sapiens;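 note: growth inhibition of the BEN cell line, read out with a cell viability assay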
Description: SANGER: Inhibition of human BEN cell growth in a cell viability assay.

HCT-15 = assay: cells; type: functional, cell-based; conditions: Homo sapiens;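 note: cell viability readout, IC50 reflecting suppression of HCT-15 cell growth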
Description: SANGER: Inhibition of human HCT-15 cell growth in a cell viability assay.

NCI-H510A = assay: cells; type: functional, cell-based, Homo sapiens; conditions: Homo sapiens, NCI-H510A;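 note: growth inhibition of NCI-H510A cells, read out with a cell viability assay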
Description: SANGER: Inhibition of human NCI-H510A cell growth in a cell viability assay.

COLO-679 = assay: cells; type: functional, cell-based; conditions: Homo sapiens
Description: SANGER: Inhibition of human COLO-679 cell growth in a cell viability assay.

OVCAR-3 = assay: cells; type: functional, cell-based; conditions: Homo sapiens;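 note: growth inhibition of human OVCAR-3 cells, determined by a cell viability assay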
Description: SANGER: Inhibition of human OVCAR-3 cell growth in a cell viability assay.

CAL-51 = assay: cells; type: functional, cell-based; conditions: Homo sapiens;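 note: human CAL-51 cell line, growth inhibition read out via a cell viability assay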
Description: SANGER: Inhibition of human CAL-51 cell growth in a cell viability assay.

NCI-H630 = assay: cells; type: functional, cell-based; conditions: Homo sapiens;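 note: growth inhibition of NCI-H630 cells, read out with a cell viability assay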
Description: SANGER: Inhibition of human NCI-H630 cell growth in a cell viability assay.

MC-CAR = assay: cells; type: functional, cell-based, Homo sapiens; conditions: Homo sapiens, MC-CAR;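 note: growth inhibition of the human MC-CAR cell line, read out by a cell viability assay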
Description: SANGER: Inhibition of human MC-CAR cell growth in a cell viability assay.

KYSE-410 = assay: cells; type: functional, cell-based; conditions: Homo sapiens;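 note: growth inhibition of KYSE-410 cells, measured through a cell viability readout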
Description: SANGER: Inhibition of human KYSE-410 cell growth in a cell viability assay.

SK-MES-1 = assay: cells; type: functional, cell-based; conditions: Homo sapiens;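 note: growth inhibition of human SK-MES-1 cells, read out with a cell viability assay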
Description: SANGER: Inhibition of human SK-MES-1 cell growth in a cell viability assay.

SNU-449 = assay: cells; type: functional, cell-based; conditions: Homo sapiens
Description: SANGER: Inhibition of human SNU-449 cell growth in a cell viability assay.

OE19 = assay: cells; type: functional, cell-based; conditions: Homo sapiens;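 note: growth inhibition of OE19 cells, measured through a cell viability read-out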
Description: SANGER: Inhibition of human OE19 cell growth in a cell viability assay.

SR = assay: cells; type: functional, cell-based, Homo sapiens; conditions: Homo sapiens, SR
Description: SANGER: Inhibition of human SR cell growth in a cell viability assay.

CHP-126 = assay: cells; type: functional, cell-based, Homo sapiens; conditions: Homo sapiens, CHP-126
Description: SANGER: Inhibition of human CHP-126 cell growth in a cell viability assay.

MFE-280 = assay: cells; type: functional, cell-based; conditions: Homo sapiens;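 note: growth inhibition of MFE-280 cells, determined with a cell viability readout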
Description: SANGER: Inhibition of human MFE-280 cell growth in a cell viability assay.

HuO9 = assay: cells; type: functional, cell-based; conditions: Homo sapiens;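 note: growth inhibition of HuO9 cells, read out with a cell viability assay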
Description: SANGER: Inhibition of human HuO9 cell growth in a cell viability assay.

BL-70 = assay: SANGER: Inhibition of human BL-70 cell growth in a cell viability assay.; type: functional, cell-based; conditions: Homo sapiens, BL-70
NCI-H1694 = assay: cells; type: functional, cell-based, Homo sapiens; conditions: Homo sapiens, NCI-H1694;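 note: cell viability assay measuring inhibition of growth in human NCI-H1694 cells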
Description: SANGER: Inhibition of human NCI-H1694 cell growth in a cell viability assay.

MDA-MB-157 = assay: cells; type: functional, cell-based; conditions: Homo sapiens
Description: SANGER: Inhibition of human MDA-MB-157 cell growth in a cell viability assay.

PA-1 = assay: cells; type: functional, cell-based; conditions: Homo sapiens;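 note: IC50 for suppression of PA-1 cell proliferation, determined with a cell viability read-out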
Description: SANGER: Inhibition of human PA-1 cell growth in a cell viability assay.

CHL-1 = assay: cells; type: functional, cell-based; conditions: Homo sapiens;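 note: cell growth inhibition, read out with a cell viability assay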
Description: SANGER: Inhibition of human CHL-1 cell growth in a cell viability assay.

RPMI-6666 = assay: cells; type: functional, cell-based, Homo sapiens; conditions: Homo sapiens, RPMI-6666
Description: SANGER: Inhibition of human RPMI-6666 cell growth in a cell viability assay.

NCI-H719 = assay: cells; type: functional, cell-based, Homo sapiens; conditions: Homo sapiens, NCI-H719;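 note: growth inhibition of the cultured cell line, read out with a viability assay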
Description: SANGER: Inhibition of human NCI-H719 cell growth in a cell viability assay.

COR-L279 = assay: SANGER: Inhibition of human COR-L279 cell growth in a cell viability assay.; type: functional, cell-based; conditions: Homo sapiens, COR-L279
IST-SL2 = assay: cells; type: functional, cell-based, Homo sapiens; conditions: Homo sapiens, IST-SL2;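 note: growth inhibition of human IST-SL2 cells, read out by a cell viability assay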
Description: SANGER: Inhibition of human IST-SL2 cell growth in a cell viability assay.

DU-145 = assay: cells; type: functional, cell-based; conditions: Homo sapiens
Description: SANGER: Inhibition of human DU-145 cell growth in a cell viability assay.

GMS-10 = assay: cells; type: functional, cell-based; conditions: Homo sapiens;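 note: growth inhibition of GMS-10 cells, read out as cell viability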
Description: SANGER: Inhibition of human GMS-10 cell growth in a cell viability assay.

SW1573 = assay: cells; type: functional, cell-based; conditions: Homo sapiens;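 note: growth inhibition of SW1573 cells, read out with a cell viability assay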
Description: SANGER: Inhibition of human SW1573 cell growth in a cell viability assay.

GP5d = assay: cells; type: functional, cell-based; conditions: Homo sapiens;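 note: growth inhibition of human GP5d cells, read out with a cell viability assay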
Description: SANGER: Inhibition of human GP5d cell growth in a cell viability assay.

UACC-812 = assay: cells; type: functional, cell-based; conditions: Homo sapiens
Description: SANGER: Inhibition of human UACC-812 cell growth in a cell viability assay.

NCI-H596 = assay: cells; type: functional, cell-based; conditions: Homo sapiens;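 note: growth inhibition of NCI-H596 cells, read out with a cell viability assay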
Description: SANGER: Inhibition of human NCI-H596 cell growth in a cell viability assay.

NCCIT = assay: SANGER: Inhibition of human NCCIT cell growth in a cell viability assay.; type: functional, cell-based; conditions: Homo sapiens, NCCIT
C32 = assay: cells; type: functional, cell-based; conditions: Homo sapiens;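 note: cell viability assay, with IC50 reflecting inhibition of C32 cell growth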
Description: SANGER: Inhibition of human C32 cell growth in a cell viability assay.

UO-31 = assay: cells; type: functional, cell-based; conditions: Homo sapiens
Description: SANGER: Inhibition of human U031 cell growth in a cell viability assay.

`O=S(=O)(O)c1ccc2cc(/N=N/c3cc(S(=O)(=O)O)c4cccnc4c3O)ccc2c1` was tested, and the IC50 (NCI-H441) was > 16000 nM, the IC50 (SIMA) was > 16000 nM and the IC50 (PANC-03-27) was > 16000 nM. The IC50 (CAL-39) was > 16000 nM, the IC50 (D-542MG) was > 16000 nM and the IC50 (IGR-1) was > 16000 nM. The IC50 (COLO-741) was > 16000 nM, the IC50 (A2058) was > 16000 nM and the IC50 (MHH-CALL-2) was > 16000 nM. The IC50 (NB1) was > 16000 nM, the IC50 (RCM-1) was > 16000 nM and the IC50 (MRK-nu-1) was > 16000 nM. For the same molecule, the IC50 (NCI-H520) was > 16000 nM, the IC50 (SK-OV-3) was > 16000 nM and the IC50 (EHEB) was > 16000 nM. The IC50 (SW1710) was > 16000 nM, the IC50 (YKG-1) was > 16000 nM and the IC50 (U-698-M) was > 16000 nM. The IC50 (NCI-H2347) was > 16000 nM, the IC50 (RT-112) was > 16000 nM and the IC50 (CP66-MEL) was > 16000 nM. The IC50 (SCC-4) was > 16000 nM, the IC50 (BHT-101) was > 16000 nM and the IC50 (D-336MG) was > 16000 nM. The IC50 (BEN) was > 16000 nM, the IC50 (HCT-15) was 15900 nM and the IC50 (NCI-H510A) was > 16000 nM. For the same molecule, the IC50 (COLO-679) was > 16000 nM, the IC50 (OVCAR-3) was > 16000 nM and the IC50 (CAL-51) was 9360 nM. For the same molecule, the IC50 (NCI-H630) was > 16000 nM, the IC50 (MC-CAR) was > 16000 nM and the IC50 (KYSE-410) was > 16000 nM. The IC50 (SK-MES-1) was > 16000 nM, the IC50 (SNU-449) was > 16000 nM and the IC50 (OE19) was > 16000 nM. For the same molecule, the IC50 (SR) was > 16000 nM, the IC50 (CHP-126) was > 16000 nM and the IC50 (MFE-280) was > 16000 nM. The IC50 (HuO9) was > 16000 nM, the IC50 (BL-70) was > 16000 nM and the IC50 (NCI-H1694) was > 16000 nM. For the same molecule, the IC50 (MDA-MB-157) was > 16000 nM, the IC50 (PA-1) was > 16000 nM and the IC50 (CHL-1) was > 16000 nM. For the same molecule, the IC50 (RPMI-6666) was > 16000 nM, the IC50 (NCI-H719) was > 16000 nM and the IC50 (COR-L279) was > 16000 nM. For the same molecule, the IC50 (IST-SL2) was > 16000 nM, the IC50 (DU-145) was > 16000 nM and the IC50 (GMS-10) was > 16000 nM. For the same molecule, the IC50 (SW1573) was > 16000 nM, the IC50 (GP5d) was > 16000 nM and the IC50 (UACC-812) was > 16000 nM. The IC50 (NCI-H596) was > 16000 nM, the IC50 (NCCIT) was > 16000 nM and the IC50 (C32) was > 16000 nM. For the same molecule, the IC50 (UO-31) was 13600 nM.

For `Cc1ccc(C(=O)Nc2ccc(CN3CCN(C)CC3)c(C(F)(F)F)c2)cc1C#Cc1cnc2cccnn12` [PONATINIB], the IC50 (NCI-H441) was > 512 nM, the IC50 (SIMA) was > 512 nM and the IC50 (PANC-03-27) was > 512 nM. The IC50 (CAL-39) was 465 nM, the IC50 (D-542MG) was > 512 nM and the IC50 (IGR-1) was > 512 nM. The IC50 (COLO-741) was > 512 nM, the IC50 (A2058) was > 512 nM and the IC50 (MHH-CALL-2) was > 512 nM. The IC50 (NB1) was > 512 nM, the IC50 (RCM-1) was > 512 nM and the IC50 (MRK-nu-1) was > 512 nM. For the same molecule, the IC50 (NCI-H520) was 177 nM, the IC50 (SK-OV-3) was > 512 nM and the IC50 (EHEB) was > 512 nM. The IC50 (SW1710) was 365 nM, the IC50 (YKG-1) was > 512 nM and the IC50 (U-698-M) was > 512 nM. For the same molecule, the IC50 (NCI-H2347) was > 512 nM, the IC50 (RT-112) was 238 nM and the IC50 (CP66-MEL) was > 512 nM. For the same molecule, the IC50 (SCC-4) was > 512 nM, the IC50 (BHT-101) was > 512 nM and the IC50 (D-336MG) was > 512 nM. The IC50 (BEN) was > 512 nM, the IC50 (HCT-15) was > 512 nM and the IC50 (NCI-H510A) was > 512 nM. The IC50 (COLO-679) was > 512 nM, the IC50 (OVCAR-3) was > 512 nM and the IC50 (CAL-51) was > 512 nM. The IC50 (NCI-H630) was > 512 nM, the IC50 (MC-CAR) was > 512 nM and the IC50 (KYSE-410) was > 512 nM. For the same molecule, the IC50 (SK-MES-1) was > 512 nM, the IC50 (SNU-449) was 300 nM and the IC50 (OE19) was > 512 nM. The IC50 (SR) was > 512 nM, the IC50 (CHP-126) was > 512 nM and the IC50 (MFE-280) was 315 nM. The IC50 (HuO9) was 54.5 nM, the IC50 (BL-70) was 22 nM and the IC50 (NCI-H1694) was > 512 nM. The IC50 (MDA-MB-157) was > 512 nM, the IC50 (PA-1) was > 512 nM and the IC50 (CHL-1) was > 512 nM. For the same molecule, the IC50 (RPMI-6666) was > 512 nM, the IC50 (NCI-H719) was 78.9 nM and the IC50 (COR-L279) was > 512 nM. The IC50 (IST-SL2) was > 512 nM, the IC50 (DU-145) was > 512 nM and the IC50 (GMS-10) was > 512 nM. For the same molecule, the IC50 (SW1573) was > 512 nM, the IC50 (GP5d) was > 512 nM and the IC50 (UACC-812) was > 512 nM. For the same molecule, the IC50 (NCI-H596) was > 512 nM, the IC50 (NCCIT) was > 512 nM and the IC50 (C32) was > 512 nM. The IC50 (UO-31) was > 512 nM.
